Test results reported in paper PMC11943723, “Synthesis and Biological Activity of Glycosyl Thiazolyl Disulfides Based on Thiacarpine, an Analogue of the Cytotoxic Alkaloid Polycarpine from the Ascidian Polycarpa aurata” (Marine Drugs, 2025).
≈ marks a conversion by molar mass, not a printed value. Counter-ions that a name gives are not always drawn.

Key:
[1] = tested on: Escherichia coli (VKPM B-7935); assay: Antimicrobial activity, inhibition of microbial growth (optical density); assay type: cell-based; conditions: Escherichia coli; 18 h, OD 620 nm; read-out: Inhibition of Microbial Growth MIC50, E. coli
Experimental: (§1) The antimicrobial activity of the compounds was determined against Gram-positive bacteria Staphylococcus aureus (ATCC 21027), Gram-negative bacteria Escherichia coli (VKPM B-7935), and yeast-like fungi Candida albicans (KMM 455) (all test strains were obtained from the Collection of Marine Microorganisms KMM PIBOC FEB RAS) in liquid nutrient media. Test cultures of S. aureus, E. coli, and C. albicans were grown in Petri dishes on a solid nutrient medium (Mueller–Hinton broth with the addition of agar—16.0 g/L) at 37 °C for 24 h. The antimicrobial activity of the compounds was determined by the change in optical density and expressed as the percentage of bacterial inhibition at different concentrations of substances added to the well of the microorganism suspension, compared to the control. The compounds were dissolved in dimethyl sulfoxide (DMSO) at a concentration of 10 mM and stored at −20 °C. Before the experiment, the solution of substances in DMSO was diluted with PBS at a concentration of 0.5–100.0 µM and added to the wells so that the concentration of DMSO in the culture medium was less than 1%. Antimicrobial activity was determined in 96-well microplates in a liquid Mueller–Hinton nutrient medium. For S. aureus, E. coli, and C. albicans, a bacterial suspension of 10^6 CFU in 1 mL of the media was used, 90 μL was added to each well of the microplates and then incubated in a thermostatted shaker at 37 °C for 18 h. Inhibition of microorganism growth was assessed by measuring the optical density at 620 nm using a microplate reader (Thermo Fisher Scientific, Waltham, MA, USA) after preliminary shaking of the plates for 10 min. All experiments were performed in triplicate. Gentamicin (S. aureus and E. coli) and nitrofungin (C. albicans) were used as positive controls, and 1% DMSO in PBS was used as a negative control.

[2] = tested on: Candida albicans (KMM 455); assay: as above; assay type: cell-based; conditions: 18 h, OD 620 nm; for MIC50: Candida albicans, KMM455, read-out: Inhibition of Microbial Growth MIC50, C. albicans
Experimental: as §1

[3] = tested on: Staphylococcus aureus (ATCC 21027); assay: as above; assay type: cell-based; conditions: Staphylococcus aureus, ATCC21027; 18 h, OD 620 nm; read-out: Inhibition of Microbial Growth MIC50, S. aureus
Experimental: as §1

[4] = tested on: Hep G2 (hepatocellular carcinoma); assay: MTT cell viability assay, Hep G2; assay type: cell-based; conditions: Homo sapiens, HepG2, 24 h incubation, read-out: Cytotoxicity EC50, Hep G2
Description: (§2) Human erythrocytes were purchased from the blood transfusion station Vladivostok. Human breast cancer cell lines MCF-7^HTB−22, and MDA-MB-231^CRM-HTB−26, liver hepatocellular carcinoma Hep G2^HB−8065, prostate adenocarcinoma PC-3^CRL−1435, cervical adenocarcinoma HeLa^CRM-CCL−2, and normal bronchial epithelial cells BEAS-2B ^CRL−3588 were received from ATCC (Manassas, VA, USA).
(§3) DMEM medium (Biolot, Russia) with 1% penicillin/streptomycin and 10% fetal bovine serum (FBS) (Biolot, Russia) was used for cultivation of Hep G2, PC-3, HeLa, and Beas-2b. MEM medium (Biolot, Russia) with 1% penicillin/streptomycin sulfate (Biolot, Russia) and FBS (Biolot, Russia) to a final concentration of 10% for MCF-7 and MDA-MB-231 cells.
(§4) The effect of the studied compounds on the viability of human cancer and normal cells was determined using the MTT (3-[4,5-dimethylthiazol-2-yl]-2,5 diphenyl tetrazolium bromide) assay. Briefly, 6 × 10^3 cells per well were seeded into 96-well plates and incubated for 24 h for adhesion, followed by incubation for 24 h with different concentrations of the substances. After incubation, the medium containing the test substances was replaced with 100 µL of fresh medium. Then, 10 μL of MTT (Sigma-Aldrich, Madison, WI, USA) reagent (5 mg/mL MTT in PBS) was added into the cells and the plates for additional 4 h. Thereafter, 100 µL of SDS-HCl solution (1 g SDS/10 mL dH2O/17 µL 6N HCl) was added to each well and incubated for 18 h. The absorbance of the converted formazan dye was measured using a Multiskan FC microplate photometer (Thermo Scientific, Waltham, MA, USA) at a wavelength of 570 nm. All experiments were performed in triplicate. Cytotoxic activity was expressed as a percentage of the cell viability.

[5] = MTT cell viability assay, BEAS-2B normal cells; assay type: cell-based; conditions: human, BEAS-2B normal bronchial epithelial cells, 24 h incubation, read-out: Cytotoxicity EC50, BEAS 2B
Description: as §2, §3, §4

[6] = tested on: MDA-MB-231 (triple-negative breast cancer); assay: MTT cell viability assay, MDA-MB-231; assay type: cell-based, human; conditions: Homo sapiens, MDA-MB-231, 24 h, 24 h incubation, read-out: Cytotoxicity EC50, MDA-MB-231 (TNBC)
Description: as §2, §3, §4

[7] = tested on: HeLa (cervical cancer); assay: MTT cell viability assay, HeLa; assay type: cell-based, human; conditions: Homo sapiens, HeLa, 24 h, 24 h incubation, read-out: Cytotoxicity EC50, HeLa
Description: as §2, §3, §4

[8] = tested on: Candida albicans (KMM 455); assay: Inhibition of biofilm formation (MTT); assay type: cell-based; conditions: 24 h
Experimental: Biofilm formation was performed according to the method described by Walencka et al., with minor modifications. The compounds were dissolved in dimethyl sulfoxide (DMSO) at a concentration of 10 mM and stored at −20 °C. Before the experiment, the solution of substances in DMSO was diluted with PBS at a concentration of 0.5–100.0 µM and added to the wells so that the concentration of DMSO in the culture medium was less than 1%. Biofilm formation was assessed in 96-well microplates in a liquid Mueller–Hinton nutrient medium. For S. aureus, E. coli, and C. albicans, a bacterial suspension of 10^6 CFU in 1 mL of medium was used, 90 μL was added to each well of the microplates and then incubated in a thermostatted shaker at 37 °C for 24 h. After incubation, the suspension of planktonic microorganisms was removed from the plate and washed with PBS. Next, 100 μL of PBS and 10 μL of MTT (3-(4,5-dimethylthiazol-2-yl)-2,5-diphenyltetrazolium bromide, MTT reagent, Sigma) stock solution (5 mg/mL) were added to the wells and incubated for 3 h at 37 °C. After incubation, all the solution was removed from the wells, 100 μL of DMSO was added, and the plate was shaken for 10 min until all formazan crystals had dissolved. The absorption was measured using a plate reader (Thermo Fisher Scientific, Waltham, MA, USA) at a wavelength of 570 nm. The activity of the substances was assessed by the change in optical density compared with that of the control. All experiments were performed in triplicate. Gentamicin (S. aureus and E. coli) and nitrofungin (C. albicans) were used as positive controls, and 1% DMSO in PBS was used as a negative control.

SMILES	MIC50 [1] [µM]	MIC50 [2] [µM]	MIC50 [3] [µM]	EC50 [4] [µM]	EC50 at 24 h [5] [µM]	EC50 [6] [µM]	EC50 [7] [µM]	Inhibition of Microbial Growth MIC50, C. albicans [2] [µM]	Inhibition of Biofilm Formation MIC50, C. albicans [8] [µM]
Nc1nc(-c2ccc(Cl)cc2)c(SSc2sc(N)nc2-c2ccc(Cl)cc2)s1 [Compound 1d]	30.9 ± 3 (≈ 14.9 µg/mL)	5 ± 0.4 (≈ 2.42 µg/mL)	2.8 ± 0.2 (≈ 1.35 µg/mL)	–	–	–	–	–	–
Nc1nc(-c2ccc(Br)cc2)c(SSc2sc(N)nc2-c2ccc(Br)cc2)s1 [Compound 1c]	15.7 ± 2.3 (≈ 8.99 µg/mL)	3.1 ± 0.4 (≈ 1.77 µg/mL)	3.4 ± 0.4 (≈ 1.95 µg/mL)	–	–	–	–	–	–
CC(=O)OC[C@H]1O[C@@H](SSc2sc(N)nc2-c2ccccc2)[C@H](OC(C)=O)[C@@H](OC(C)=O)[C@@H]1OC(C)=O [Compound 4b, 5-[(2,3,4,6-Tetra-O-acetyl-β-D-glucopyranosyl)disulfanyl]-2-amino-4-phenylthiazole]	31.2 ± 2 (≈ 17.8 µg/mL)	20.5 ± 2.7 (≈ 11.7 µg/mL)	28.4 ± 3.1 (≈ 16.2 µg/mL)	> 25	19	24.1	> 25	–	–
Cc1ccc(-c2nc(N)sc2SSc2sc(N)nc2-c2ccc(C)cc2)cc1 [Compound 1e]	33.9 ± 3.9 (≈ 15 µg/mL)	19.5 ± 2 (≈ 8.63 µg/mL)	30.7 ± 2.1 (≈ 13.6 µg/mL)	–	–	–	–	–	–
CC(=O)O[C@@H]1[C@@H](OC(C)=O)[C@H](SSc2sc(N)nc2-c2ccc(C)cc2)OC[C@H]1OC(C)=O [Compound 4j, 5-[(2,3,4-Tri-O-acetyl-β-D-xylopyranosyl)disulfanyl]-2-amino-4-(p-tolyl)thiazole]	25.5 ± 2 (≈ 13.1 µg/mL)	18.1 ± 1 (≈ 9.28 µg/mL)	25 ± 1.4 (≈ 12.8 µg/mL)	> 25	> 25	23.7	> 25	–	–
CNC(C)C1CCC(N)C(OC2C(N)CC(N)C(OC3OCC(C)(O)C(NC)C3O)C2O)O1 (centres unmarked) [Gentamicin, reference compound]	5.1 ± 0.7 (≈ 2.44 µg/mL)	–	4.3 ± 0.8 (≈ 2.05 µg/mL)	–	–	–	–	–	–
O=[N+]([O-])c1ccc(O)c(Cl)c1 [Nitrofungin, reference compound]	–	–	–	–	–	–	–	4.1 ± 0.5	4.3 ± 0.4
CC(=O)O[C@@H]1[C@@H](OC(C)=O)[C@H](SSc2sc(N)nc2-c2ccccc2)OC[C@H]1OC(C)=O [Compound 4g, 5-[(2,3,4-Tri-O-acetyl-β-D-xylopyranosyl)disulfanyl]-2-amino-4-phenylthiazole]	42.1 ± 4.1 (≈ 21 µg/mL)	35.7 ± 3 (≈ 17.8 µg/mL)	34 ± 1.6 (≈ 17 µg/mL)	> 25	> 25	> 25	> 25	–	–
COc1ccc(-c2nc(N)sc2SS[C@@H]2O[C@H](COC(C)=O)[C@@H](OC(C)=O)[C@H](OC(C)=O)[C@H]2OC(C)=O)cc1 [Compound 4a, 5-[(2,3,4,6-Tetra-O-acetyl-β-D-glucopyranosyl)disulfanyl]-2-amino-4-(4-methoxyphenyl) thiazole]	> 50	31.5 ± 3.1 (≈ 18.9 µg/mL)	32.5 ± 3.2 (≈ 19.5 µg/mL)	> 25	19.9	> 25	> 25	–	–
Nc1nc(-c2ccccc2)c(SSc2sc(N)nc2-c2ccccc2)s1 [Compound 1b, bis(2-amino-4-phenyl-5-thiazolyl)disulfide]	13.9 ± 1.3 (≈ 5.76 µg/mL)	6.2 ± 0.6 (≈ 2.57 µg/mL)	5.2 ± 0.5 (≈ 2.16 µg/mL)	–	–	–	–	–	–

Now from value to compound, other results behind:

MIC50 [1] [µM]	MIC50 [2] [µM]	MIC50 [3] [µM]	SMILES	EC50 [4] [µM]	EC50 at 24 h [5] [µM]	EC50 [6] [µM]	EC50 [7] [µM]	Inhibition of Microbial Growth MIC50, C. albicans [2] [µM]	Inhibition of Biofilm Formation MIC50, C. albicans [8] [µM]
> 50	> 50	> 50	COc1ccc(-c2nc(N)sc2SS[C@@H]2O[C@H](CO)[C@@H](O)[C@H](O)[C@H]2O)cc1 [Compound 5a, 5-[(β-D-glucopyranosyl)disulfanyl]-2-amino-4-(4-methoxyphenyl)thiazole hydrochloride]	> 25	> 25	24.9	> 25	–	–
> 50	> 50	> 50	Nc1nc(-c2ccccc2)c(SS[C@@H]2O[C@H](CO)[C@@H](O)[C@H](O)[C@H]2O)s1 [Compound 5b, 5-[(β-D-glucopyranosyl)disulfanyl]-2-amino-4-phenylthiazole hydrochloride]	> 25	20.8	> 25	> 25	–	–
> 50	38.5 ± 3.4	> 50	Cc1ccc(-c2nc(N)sc2SS[C@@H]2O[C@H](CO)[C@@H](O)[C@H](O)[C@H]2O)cc1 [Compound 5e, 5-[(β-D-glucopyranosyl)disulfanyl]-2-amino-4-(p-tolyl)thiazole hydrochloride]	> 25	22.6	23.5	> 25	–	–
> 50	36.2 ± 2.1	> 50	COc1ccc(-c2nc(N)sc2SS[C@@H]2OC[C@@H](O)[C@H](O)[C@H]2O)cc1 [Compound 5f, 5-[(β-D-xylopyranosyl)disulfanyl]-2-amino-4-(4-methoxyphenyl)thiazole hydrochloride]	> 25	> 25	> 25	> 25	–	–
21 ± 3	13.8 ± 1.2	13.7 ± 1.1	Nc1nc(-c2ccc(Cl)cc2)c(SS[C@@H]2OC[C@@H](O)[C@H](O)[C@H]2O)s1 [Compound 5i, 5-[(β-D-xylopyranosyl)disulfanyl]-2-amino-4-(4-clorophenyl)thiazole hydrochloride]	> 25	> 25	> 25	> 25	–	–
24.9 ± 2.2	25.3 ± 1	> 50	Nc1nc(-c2ccccc2)c(SS[C@@H]2OC[C@@H](O)[C@H](O)[C@H]2O)s1 [Compound 5g, 5-[(β-D-xylopyranosyl)disulfanyl]-2-amino-4-phenylthiazole hydrochloride]	> 25	22	> 25	> 25	–	–
